Measurements published in US6610314B2, “Antimicrobial formulations” (Kimberly-Clark Worldwide, Inc., priority 2001, dated 2003).

Assays:
[1] = test system: Escherichia coli (ATCC 8739); assay: Alamar Blue reduction biocidal assay, 5 minute exposure; assay type: cell-based; conditions: for IC50: Escherichia coli, ATCC8739, ATCC 8739, 5 min, read-out: 50% Inhibitory Concentration (IC50), E. coli, 50% inhibition of Alamar Blue reduction
Description: (§1) In this Example, the antimicrobial efficacy (in terms of IC50 data) of several different formulations against Staphylococcus aureus, Staphylococcus epidermidis, and Escherichia coli was evaluated. The formulations tested comprised a formulation based upon the present invention as well as several other formulations comprised of various organic acids and/or surfactants, as well as surfactants alone. Microorganism Preparation: Lyophilized cultures of Escherichia coli (ATCC 8739), Staphylococcus aureus (ATCC 6538), and Staphylococcus epidermidis (ATCC 12,228) were obtained from the American Type Culture Collection (ATCC) (Rockville, Md.). All three cultures were reconstituted according to ATCC specifications. Aliquots (0.5 mL) of reconstituted 24 hour broth growth were frozen and held at −80° C. until needed. Working cultures were prepared weekly by streaking a loop of frozen culture onto tryptic soy agar plates (TSA) (Becton Dickinson Microbiology Systems, Cockeysville, Md.) and then incubating overnight at 37° C. After incubation, the cultures were held at 4° C. for not more than about 5 days. One day prior to testing, a fresh TSA plate was prepared with a sterile swab to achieve a lawn of growth and incubated at 37° C. for about 24 hours. […] Cell concentrations were determined in triplicate by taking optical density readings of a sample (200 microliters) with a ThermoMax microplate reader spectrophotometer (Molecular Devices) at 650 nm. From a standard curve the appropriate volume of the PBW containing the cells was determined to prepare 1.1×10^9 CFU/mL in the PBW. Exact cell numbers were confirmed by spread plating on TSA and incubating at 37° C. Assay Protocol: To all wells of a Microflour®2 96 well microtiter plate (8 Rows by 12 Columns) (Dynex Technologies, Chantilly, Va.) was added 25 microliters of filtered, sterilized water (Millipore Continental Water Systems, Bedford Mass.). […] After mixing, 25 microliters was transferred from each well in Row A to its corresponding well in Row B to produce a new 50 microliter mixture of sample formulation and water having one half the concentration of sample formulation as that of Row A. The Row B mixtures were aspirated 3 times to thoroughly mix the sample formulation and water combination. These serial dilutions continued down the Rows until reaching Row G (for a total of 6 dilutions from the original plates in Row A). After thorough mixing of Row G well contents, 25 microliters of each well in Row G (a total of 12) was discarded to produce a Row G having 12 columns each containing 25 microliters. […] After serial dilution, bacterial cells were introduced into the wells. […] In columns 4, 5, and 6 of each Row, 25 microliters (about 2.75×10^7 cells) of Staphylococcus epidermidis as prepared above was introduced and mixed. In columns 7, 8, and 9 of each Row, 25 microliters (about 2.75×10^7 cells) of Escherichia coli as prepared above was introduced and mixed. The sample formulations as prepared above were appropriately diluted (if necessary) prior to the introduction of the sample formulations into Row A. The dilutions were made such that, after the sample formulation was introduced into Row A, and after the cells were introduced into Row A (i.e., after reducing the initial concentration of the sample formulation by 50% two times), the initial concentrations were as follows: After the addition of the cells, incubation proceeded (5 minutes) at room temperature. After the incubation period, a 1.6 M phosphate buffer (50 microliters) was added to all wells to neutralize the biocide. Then, 3×Letheen broth (50 microliters) (Difco Laboratories, Detroit, Mich.) and Alamar Blue (25 microliters at room temperature) (AccuMed International, Westlake, Ohio) were added to each well. A positive control was also utilized in the experiment. The positive control consisted of adding sterile Milli-Q water to the wells in place of sample formulation. […]

[2] = test system: Staphylococcus aureus (ATCC 6538); assay: as above; assay type: cell-based; conditions: for IC50: Staphylococcus aureus, ATCC6538, 5 min, read-out: 50% Inhibitory Concentration (IC50), S. aureus, 50% inhibition of Alamar Blue reduction; for IC50 / 50% Inhibitory Concentration (IC50), S. aureus: 5 minutes incubation at room temperature; for 50% Inhibitory Concentration (IC50), S. aureus: 50% inhibition of Alamar Blue reduction
Description: as §1

[3] = test system: Staphylococcus epidermidis (ATCC 12,228); assay: as above; assay type: cell-based; conditions: for IC50: Staphylococcus epidermidis, ATCC12, 5 min, read-out: 50% Inhibitory Concentration (IC50), S. epidermidis, 50% inhibition of Alamar Blue reduction
Description: as §1

Human stratum corneum = conditions: tape biopsies soaked 30 minutes at room temperature; against purified water controls; tested in triplicate; Sulfate
Description: Skin mildness was evaluated by measuring the damage caused by the biocide on the outer portion of the stratum corneum, and specifically the removal of the lipid component of the stratum corneum.
Human stratum corneum was harvested from adult legs using D-Squame tape biopsies (Cuderm Corporation, Dallas Tex.). Each biopsy harvested consisted of about 7 to 8 pulls from multiple sites on a subject's lower leg. After harvesting, the tapes containing the biopsies were soaked in the test biocide (2 mL) in covered six well tissue cultured dishes for 30 minutes at room temperature. Each biocide formulation was tested in triplicate in adjacent wells.
After soaking the tape strips in the biocide, the tape strips were removed and washed for 3 minutes with cold tap water, and dried at room temperature. After drying, the tape strips containing the biopsies were completely immersed in fushin-toluidine blue dye (Polychrome Multiple Stain, PMS: Delasco, Council Bluff, Iowa.) The immersion continued for 3 minutes after which the tape strips were removed and washed for 3 minutes in cold tap water. After washing, the tape strips were allowed to dry completely at room temperature.
The color of the dried samples was measured by color reflectance using a Minolta CR 5000 (Minolta, Osaka, Japan) spectrophotometer. The color measurements recorded the luminance (L*) and chromaticity through Chroma C* described by the equation (a^*2+b^*2)^½. The color differentials between test materials and controls were calculated according to: [(ΔL*)^2+(ΔC*)^2]^1/2=ΔE*ab. The measurements were taken against controls which were purified water.

[4] = 5 minutes incubation at room temperature
[5] = 50% inhibition of Alamar Blue reduction, 5 minutes incubation at room temperature, listed as #4, sulfate

| SMILES | IC50 [1, 4] [µg/mL] | IC50 [2] [µg/mL] | IC50 [3, 4] [µg/mL] | ΔE*ab (color differential of dye-stained stratum corneum biopsies) (Human stratum corneum) | other results |
| --- | --- | --- | --- | --- | --- |
| O=C(O)CC(O)(CC(=O)O)C(=O)O [Biocide #1, Citric Acid] | > 6300 | 2200 | 710 |  |  |
| CCCCCCCCCCCCOS(=O)(=O)[O-].[Na+] [Formulation 5, Sodium Dodecyl Sulfate] |  |  |  | 20.76 |  |
| CCCCCCCCCCCCOS(=O)(=O)[O-].[Na+] [Formulation 6, Sodium Dodecyl Sulfate] |  |  |  | 3.36 |  |
| O=C(O)CC(O)C(=O)O (stereo not drawn) [Biocide #2, Malic Acid] | 6000 | 1300 | 240 |  |  |
| CCCCCCCCCCCCOS(=O)(=O)[O-].[Na+] [Biocide #4, sodium dodecyl sulfate] | ~79000 |  | < 1000 |  | inhibition in words, E. coli [1]: exhibited inhibition; 50% Inhibitory Concentration (IC50), E. coli [1, 5]: 79500 µg/mL; inhibition / biocidal activity in words, S. aureus [2]: exhibited inhibition; 50% Inhibitory Concentration (IC50), S. aureus ([2]; listed as #4, sulfate): 480 µg/mL; 50% Inhibitory Concentration (IC50), S. aureus ([2]; listed as sodium dodecyl sulfate, sulfate): less than 1 g/L; inhibition in words, S. epidermidis [3]: exhibited inhibition; 50% Inhibitory Concentration (IC50), S. epidermidis [3, 5]: 950 µg/mL |
| CCCCCCCCCCCCOS(=O)(=O)[O-].[Na+] [Formulation 4, Sodium Dodecyl Sulfate] |  |  |  | 34.41 |  |
